Test results taken from article PMC4307180, “Overcoming myelosuppression due to synthetic lethal toxicity for FLT3-targeted acute myeloid leukemia therapy” (eLife, 2014).

Legend:
HMC1.1 cells (KIT V560G) = settings: proliferation, Figure 2A and reference values; ref de Jong and Zon, 2005; Guo et al., 2007; Kampa-Shittenhelm et al., 2013; cited from earlier work
purified FLT3 WT = biological target: T1, purified FLT3 WT (Homo sapiens, UniProt P36888); test: Radiolabeled purified kinase assay (Figure 1B)
T1 sequence (P36888 27-993): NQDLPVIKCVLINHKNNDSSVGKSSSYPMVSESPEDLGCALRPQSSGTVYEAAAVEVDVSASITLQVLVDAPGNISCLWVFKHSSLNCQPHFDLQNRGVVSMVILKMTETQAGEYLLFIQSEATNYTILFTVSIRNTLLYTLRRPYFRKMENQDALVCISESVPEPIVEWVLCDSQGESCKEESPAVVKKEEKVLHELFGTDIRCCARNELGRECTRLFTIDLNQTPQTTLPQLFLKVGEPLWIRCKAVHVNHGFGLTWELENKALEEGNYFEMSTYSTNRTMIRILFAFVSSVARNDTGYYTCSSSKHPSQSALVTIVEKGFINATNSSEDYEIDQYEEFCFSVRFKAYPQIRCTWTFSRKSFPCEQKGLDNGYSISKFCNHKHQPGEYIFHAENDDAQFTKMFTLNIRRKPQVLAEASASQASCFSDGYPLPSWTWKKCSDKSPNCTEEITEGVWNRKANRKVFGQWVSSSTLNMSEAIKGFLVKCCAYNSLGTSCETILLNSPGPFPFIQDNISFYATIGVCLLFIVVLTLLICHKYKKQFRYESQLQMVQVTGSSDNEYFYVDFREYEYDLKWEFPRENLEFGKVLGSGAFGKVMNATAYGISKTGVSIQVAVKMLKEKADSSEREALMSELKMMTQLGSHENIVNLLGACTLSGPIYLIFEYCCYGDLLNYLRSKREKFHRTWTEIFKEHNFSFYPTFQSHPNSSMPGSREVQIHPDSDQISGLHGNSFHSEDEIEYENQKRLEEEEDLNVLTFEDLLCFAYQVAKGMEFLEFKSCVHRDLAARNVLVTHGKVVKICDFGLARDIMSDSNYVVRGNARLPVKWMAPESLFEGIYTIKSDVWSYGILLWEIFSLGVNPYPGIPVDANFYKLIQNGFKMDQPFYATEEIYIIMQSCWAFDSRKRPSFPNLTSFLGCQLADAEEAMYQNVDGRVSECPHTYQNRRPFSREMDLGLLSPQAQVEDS

FLT3 = biological target: T2, FLT3 (Homo sapiens, UniProt P36888); test: Reaction Biology Corp kinase assay at Km-ATP (Figure 1C), FLT3
T2 sequence (P36888 27-993): T1 sequence (P36888 27-993)

KIT = KIT (Homo sapiens, UniProt P10721); test: Reaction Biology Corp kinase assay at Km-ATP (Figure 1C), KIT
Chain of KIT (P10721 26-976): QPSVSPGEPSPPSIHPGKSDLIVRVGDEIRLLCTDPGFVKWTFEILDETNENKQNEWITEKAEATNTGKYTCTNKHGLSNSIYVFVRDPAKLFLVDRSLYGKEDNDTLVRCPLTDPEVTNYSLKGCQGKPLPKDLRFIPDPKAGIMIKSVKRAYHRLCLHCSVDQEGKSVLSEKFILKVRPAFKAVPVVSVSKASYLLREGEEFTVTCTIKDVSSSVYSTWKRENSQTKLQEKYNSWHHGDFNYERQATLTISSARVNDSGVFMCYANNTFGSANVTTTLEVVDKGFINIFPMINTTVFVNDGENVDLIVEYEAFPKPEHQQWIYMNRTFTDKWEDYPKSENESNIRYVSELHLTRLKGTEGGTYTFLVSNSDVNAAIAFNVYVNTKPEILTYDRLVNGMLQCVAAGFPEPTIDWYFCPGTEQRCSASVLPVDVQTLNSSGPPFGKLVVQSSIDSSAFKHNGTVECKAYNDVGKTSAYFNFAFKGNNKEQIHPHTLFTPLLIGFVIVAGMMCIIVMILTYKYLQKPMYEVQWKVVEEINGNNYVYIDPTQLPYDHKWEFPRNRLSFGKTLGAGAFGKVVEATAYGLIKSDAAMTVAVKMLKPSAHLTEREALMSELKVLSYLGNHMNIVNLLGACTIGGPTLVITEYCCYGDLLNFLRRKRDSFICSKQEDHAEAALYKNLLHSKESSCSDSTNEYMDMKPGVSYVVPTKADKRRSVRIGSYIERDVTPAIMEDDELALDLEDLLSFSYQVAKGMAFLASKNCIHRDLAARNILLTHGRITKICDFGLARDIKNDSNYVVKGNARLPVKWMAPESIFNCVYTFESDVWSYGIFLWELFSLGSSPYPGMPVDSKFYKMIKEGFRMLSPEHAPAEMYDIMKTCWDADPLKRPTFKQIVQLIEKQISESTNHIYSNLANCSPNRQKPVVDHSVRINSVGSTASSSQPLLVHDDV

PDGFRα = PDGFRα (Homo sapiens, UniProt P16234); test: Reaction Biology Corp kinase assay at Km-ATP (Figure 1C), PDGFRα
Chain of PDGFRα (P16234 24-1089): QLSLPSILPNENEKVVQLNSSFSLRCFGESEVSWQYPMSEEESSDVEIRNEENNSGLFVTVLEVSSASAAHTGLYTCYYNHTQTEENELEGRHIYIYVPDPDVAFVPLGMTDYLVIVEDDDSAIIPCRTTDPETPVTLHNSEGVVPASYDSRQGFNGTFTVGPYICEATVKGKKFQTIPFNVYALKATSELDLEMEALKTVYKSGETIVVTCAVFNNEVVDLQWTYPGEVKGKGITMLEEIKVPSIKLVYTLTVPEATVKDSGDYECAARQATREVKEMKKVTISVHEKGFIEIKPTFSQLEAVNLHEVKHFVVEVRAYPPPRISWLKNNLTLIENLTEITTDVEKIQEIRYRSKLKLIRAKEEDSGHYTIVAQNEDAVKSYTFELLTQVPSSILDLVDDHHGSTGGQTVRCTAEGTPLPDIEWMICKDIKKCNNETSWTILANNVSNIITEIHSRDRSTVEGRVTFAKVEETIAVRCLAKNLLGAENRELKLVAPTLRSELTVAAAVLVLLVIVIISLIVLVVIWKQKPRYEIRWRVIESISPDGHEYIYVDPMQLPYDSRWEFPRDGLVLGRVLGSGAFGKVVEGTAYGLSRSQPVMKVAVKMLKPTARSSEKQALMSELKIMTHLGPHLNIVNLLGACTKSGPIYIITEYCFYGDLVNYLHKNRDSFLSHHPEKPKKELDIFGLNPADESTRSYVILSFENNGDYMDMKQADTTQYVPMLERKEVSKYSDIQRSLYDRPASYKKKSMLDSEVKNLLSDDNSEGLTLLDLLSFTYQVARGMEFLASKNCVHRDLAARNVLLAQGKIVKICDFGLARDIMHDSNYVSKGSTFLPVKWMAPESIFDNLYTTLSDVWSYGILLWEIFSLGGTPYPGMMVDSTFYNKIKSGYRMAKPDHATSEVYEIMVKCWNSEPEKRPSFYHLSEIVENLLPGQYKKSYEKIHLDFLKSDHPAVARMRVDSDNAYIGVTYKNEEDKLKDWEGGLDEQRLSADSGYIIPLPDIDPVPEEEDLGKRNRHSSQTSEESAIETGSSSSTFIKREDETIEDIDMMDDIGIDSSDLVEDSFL

PDGFRβ = PDGFRβ (Homo sapiens, UniProt P09619); test: Reaction Biology Corp kinase assay at Km-ATP (Figure 1C), PDGFRβ
Chain of PDGFRβ (P09619 33-1106): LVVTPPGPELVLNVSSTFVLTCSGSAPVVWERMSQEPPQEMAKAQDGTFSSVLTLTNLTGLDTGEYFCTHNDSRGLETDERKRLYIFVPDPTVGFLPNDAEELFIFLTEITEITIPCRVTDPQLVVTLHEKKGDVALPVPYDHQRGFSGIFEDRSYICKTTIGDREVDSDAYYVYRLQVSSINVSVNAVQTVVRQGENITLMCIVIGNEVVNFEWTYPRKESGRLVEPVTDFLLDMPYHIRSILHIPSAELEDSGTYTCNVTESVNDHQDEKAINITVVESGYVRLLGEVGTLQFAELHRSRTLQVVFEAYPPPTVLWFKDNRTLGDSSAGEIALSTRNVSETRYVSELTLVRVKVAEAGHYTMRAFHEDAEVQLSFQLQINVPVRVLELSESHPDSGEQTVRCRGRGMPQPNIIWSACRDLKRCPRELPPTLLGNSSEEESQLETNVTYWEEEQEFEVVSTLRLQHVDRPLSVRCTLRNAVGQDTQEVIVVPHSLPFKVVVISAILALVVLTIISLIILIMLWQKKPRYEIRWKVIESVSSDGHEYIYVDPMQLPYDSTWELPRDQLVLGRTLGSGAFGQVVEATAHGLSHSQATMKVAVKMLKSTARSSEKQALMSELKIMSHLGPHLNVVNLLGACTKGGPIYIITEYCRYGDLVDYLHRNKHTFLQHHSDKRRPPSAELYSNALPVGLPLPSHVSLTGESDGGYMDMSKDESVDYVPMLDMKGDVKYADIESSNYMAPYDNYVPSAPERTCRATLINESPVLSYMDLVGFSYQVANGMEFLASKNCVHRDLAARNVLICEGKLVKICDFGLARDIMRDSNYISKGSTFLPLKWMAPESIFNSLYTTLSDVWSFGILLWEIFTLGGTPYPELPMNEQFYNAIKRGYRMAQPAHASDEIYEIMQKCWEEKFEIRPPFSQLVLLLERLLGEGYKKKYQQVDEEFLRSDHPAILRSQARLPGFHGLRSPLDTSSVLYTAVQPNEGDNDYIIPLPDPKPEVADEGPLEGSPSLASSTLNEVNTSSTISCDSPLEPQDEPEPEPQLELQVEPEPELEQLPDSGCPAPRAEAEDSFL

CSF1R = CSF1R (Homo sapiens, UniProt P07333); test: Reaction Biology Corp kinase assay at Km-ATP (Figure 1C), CSF1R
Chain of CSF1R (P07333 20-972): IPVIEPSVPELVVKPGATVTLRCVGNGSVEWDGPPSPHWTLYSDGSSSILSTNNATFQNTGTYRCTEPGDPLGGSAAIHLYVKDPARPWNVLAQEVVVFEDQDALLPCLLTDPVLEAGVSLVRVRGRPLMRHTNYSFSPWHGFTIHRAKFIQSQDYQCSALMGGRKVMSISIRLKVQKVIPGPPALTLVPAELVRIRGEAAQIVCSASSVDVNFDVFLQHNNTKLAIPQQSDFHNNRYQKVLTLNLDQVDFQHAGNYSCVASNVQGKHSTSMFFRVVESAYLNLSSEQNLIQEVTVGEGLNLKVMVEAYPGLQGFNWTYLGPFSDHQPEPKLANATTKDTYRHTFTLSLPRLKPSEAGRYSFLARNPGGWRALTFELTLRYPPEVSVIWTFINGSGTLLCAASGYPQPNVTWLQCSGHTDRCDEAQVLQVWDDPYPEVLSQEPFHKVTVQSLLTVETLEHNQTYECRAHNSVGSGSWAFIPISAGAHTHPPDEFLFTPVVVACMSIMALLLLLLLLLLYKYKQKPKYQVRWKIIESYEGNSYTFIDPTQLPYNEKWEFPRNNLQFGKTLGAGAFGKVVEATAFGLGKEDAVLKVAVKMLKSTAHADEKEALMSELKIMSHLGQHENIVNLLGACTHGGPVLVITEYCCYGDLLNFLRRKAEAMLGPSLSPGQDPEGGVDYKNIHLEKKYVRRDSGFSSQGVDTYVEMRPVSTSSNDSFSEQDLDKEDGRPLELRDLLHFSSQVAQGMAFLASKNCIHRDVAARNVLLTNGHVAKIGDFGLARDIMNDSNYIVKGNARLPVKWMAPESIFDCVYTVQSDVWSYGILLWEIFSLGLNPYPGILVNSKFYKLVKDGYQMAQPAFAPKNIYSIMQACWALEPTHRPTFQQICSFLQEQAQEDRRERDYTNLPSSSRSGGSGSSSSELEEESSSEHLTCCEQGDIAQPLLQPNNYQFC

SMILES | IC50 (purified FLT3 WT) [nM] | further results
Cc1ccc(C(=O)Nc2ccc(CN3CCN(C)CC3)c(C(F)(F)F)c2)cc1C#Cc1cnc2cccnn12 [Ponatinib] |  | inhibition of FLT3- versus KIT-driven cell lines (HMC1.1 cells (KIT V560G)): equipotent inhibition of FLT3 and KIT-driven cell lines
CNC(=O)c1cc(Oc2ccc(NC(=O)Nc3ccc(Cl)c(C(F)(F)F)c3)cc2)ccn1 [Sorafenib] |  | inhibition of FLT3- versus KIT-driven cell lines (HMC1.1 cells (KIT V560G)): equipotent inhibition of FLT3 and KIT-driven cell lines
CCCC[C@@H]1NC(=O)c2c1c1c3ccccc3[nH]c1c1[nH]c3ccccc3c21 [Star 4] | > 10000 | 
C#CC[C@@H]1NC(=O)c2c1c1c3ccccc3[nH]c1c1[nH]c3ccccc3c21 [Star 9] | > 10000 | 
C[C@@H]1NC(=O)c2c1c1c3ccccc3n(CCCCN)c1c1[nH]c3ccccc3c21 [Star 23] | 10 ± 4 | IC50 (FLT3): 9 ± 1 nM; IC50 (KIT): 6550 nM; KIT/FLT3 IC50 ratio (KIT; ratio of Figure 1C IC50s): 728; IC50 (PDGFRα): 2000 nM; IC50 (PDGFRβ): 2800 nM; IC50 (CSF1R): > 10000 nM
C[C@@H]1NC(=O)c2c1c1c3ccccc3[nH]c1c1c2c2ccccc2n1CCCN [Star 27-iso] | 15 ± 7 | 

More lines, main results first:

IC50 (purified FLT3 WT) [nM] | SMILES | further results
> 10000 | CC(C)C[C@@H]1NC(=O)c2c1c1c3ccccc3[nH]c1c1[nH]c3ccccc3c21 [Star 1] | 
> 10000 | CCC[C@@H]1NC(=O)c2c1c1c3ccccc3[nH]c1c1[nH]c3ccccc3c21 [Star 3] | 
2000 | CC(C)[C@@H]1NC(=O)c2c1c1c3ccccc3[nH]c1c1[nH]c3ccccc3c21 [Star 6] | 
> 10000 | CC(C)(C)[C@@H]1NC(=O)c2c1c1c3ccccc3[nH]c1c1[nH]c3ccccc3c21 [Star 7] | 
2000 | CC[C@@H]1NC(=O)c2c1c1c3ccccc3[nH]c1c1[nH]c3ccccc3c21 [Star 8] | 
193 ± 28 | C[C@@H]1NC(=O)c2c1c1c3ccccc3[nH]c1c1[nH]c3ccccc3c21 [Star 22] | 
